Reference: ChEMBL document CHEMBL6109124, “Identification of effective anti-osteosarcoma agents via screening of an in-house NQO1-targeted compound library” (Bioorg Med Chem, 2025)

Legend:
[1] = Toxicity in human MNNG cell xenografted Balb/c mouse assessed as body weight loss at 30 mg/kg, iv administered every 2 days for 3 weeks and measured every other day during compound dosing; type: organism-based; settings: in vivo, 504 h, time 21 day
[2] = Selectivity index, ratio of IC50 for cytotoxicity against HUVEC to IC50 for cytotoxicity against human MNNG cells; type: toxicity, cell-based; settings: HUVEC and human MNNG cells, read-out: Ratio IC50
HOS-TE85 [3] = test: Cytotoxicity against human MNNG cells assessed as cell growth inhibition measured after 72 hrs by MTT assay; type: functional, cell-based; settings: HOS-TE85, 72 h
[4] = Toxicity in human MNNG cell xenografted Balb/c mouse assessed as reduction in Cr level at 30 mg/kg, iv administered every 2 days for 3 weeks and measured post last dose; type: organism-based; settings: in vivo, 504 h, time 21 day
HOS-TE85 [5] = test: Antitumor activity against human MNNG cells xenografted in Balb/c mouse assessed as tumor growth inhibition at 30 mg/kg, iv administered every 2 days for 3 weeks and measured daily during compound dosing relative to control; type: functional; settings: HOS-TE85, 504 h, time 21 day, read-out: TGI
[6] = Toxicity in human MNNG cell xenografted Balb/c mouse assessed as reduction in AST level at 30 mg/kg, iv administered every 2 days for 3 weeks and measured post last dose; type: organism-based; settings: in vivo, 504 h, time 21 day
[7] = Cytotoxicity against HUVEC assessed as cell growth inhibition measured after 72 hrs by MTT assay; type: toxicity, cell-based; settings: human, HUVEC cells
HOS-TE85 [8] = test: Cytotoxicity against human MNNG cells assessed as cell growth inhibition at 10 uM measured after 72 hrs by MTT assay relative to control; type: functional; settings: read-out: GI
HOS-TE85 [9] = test: Cytotoxicity against human MNNG cells assessed as cell growth inhibition at 1 uM measured after 72 hrs by MTT assay relative to control; type: functional; settings: read-out: GI

Row | Compound | Activity [1] | selectivity ratio [2] | IC50 (HOS-TE85 [3]) [µM] | Activity [4] | inhibition in vivo at 30 mg/kg (HOS-TE85 [5]) [%] | Activity [6] | IC50 at 72 h [7] [µM] | inhibition of growth at 10 µM (HOS-TE85 [8]) [%] | inhibition of growth at 1 µM (HOS-TE85 [9]) [%]
1 | CC1(C)CCC2=C(O1)c1ccccc1C(=O)C2=O [LAPACHONE] | Non-toxic | 5.16 | 2.42 | Toxic | 58.9 | Toxic | 12.5 |  | 
2 | N#Cc1nc2c(nc1C#N)-c1cc(F)c(F)cc1/C2=N\NC1CCCCC1 |  | 7.73 | 2.22 |  |  |  | 17.2 | 90.4 | 31.2
